This passage reports IC50 results from US9611224B2 (Hoffmann-La Roche Inc., priority 2012, dated 2017).

Counter-ions that a name gives are not always drawn.

BIR3 domain of XIAP, sequence (P98170 other isoform, or with tags, fused parts or gaps): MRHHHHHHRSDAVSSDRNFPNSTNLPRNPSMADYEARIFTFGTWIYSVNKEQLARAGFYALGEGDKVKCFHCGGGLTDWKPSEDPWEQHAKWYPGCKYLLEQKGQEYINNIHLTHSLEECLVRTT

The experiment deals with BIR3 domain of XIAP (Homo sapiens (Human), UniProt P98170). The experiment in a line: TR-FRET assay for BIR3 (inhibition of binding to Peptide A). The conditions noted are these: 6x His-tagged BIR3 domain (aa 241-356 of XIAP), 20 nM Peptide A, 10 concentrations. On the procedure:
TR-FRET Assay for BIR2 and BIR3
Percentage of inhibition at each concentration was determined to generate an IC50 value for each test compound.
On the technique in general: Time-resolved FRET reads energy transfer from a long-lived donor to a nearby acceptor.
On to `CN[C@@H](C)C(=O)N[C@H]1CCc2ccccc2N(Cc2c(OC)ccc3cc(-c4ncon4)ccc23)C1=O` [Example 32, (S)—N—[(S)-1-(2-Methoxy-6-[1,2,4]oxadiazol-3-yl-naphthalen-1-ylmethyl)-2-oxo-2,3,4,5-tetrahydro-1H-benzo[b]azepin-3-yl]-2-methylamino-propionamide hydrochloride], for which the IC50 was above 54.8 µM.
As to `CN[C@@H](C)C(=O)N[C@H]1CCc2ccccc2N(Cc2c(OC)ccc3cc(C(=N)NN)ccc23)C1=O` [Example 33, (S)—N—{(S)-1-[6-(N-Aminocarbamimidoyl)-2-methoxy-naphthalen-1-ylmethyl]-2-oxo-2,3,4,5-tetrahydro-1H-benzo[b]azepin-3-yl}-2-methylamino-propionamide dihydrochloride], the IC50 was above 54.8 µM.
In turn, `CN[C@@H](C)C(=O)N[C@H]1CCc2ccccc2N(Cc2c(OC)ccc3cc(-c4cn[nH]c4)ccc23)C1=O` [Example 43, (S)—N—{(S)-1-[2-Methoxy-6-(1H-pyrazol-4-yl)-naphthalen-1-ylmethyl]-2-oxo-2,3,4,5-tetrahydro-1H-benzo[b]azepin-3-yl}-2-methylamino-propionamide hydrochloride] came in with an IC50 above 54.8 µM.
Then `CN[C@@H](C)C(=O)N[C@H]1CCc2ccccc2N(Cc2c(OC)ccc3c2CCCC3)C1=O` [Example 44, (S)—N—[(S)-1-(2-Methoxy-5,6,7,8-tetrahydro-naphthalen-1-ylmethyl)-2-oxo-2,3,4,5-tetrahydro-1H-benzo[b]azepin-3-yl]-2-methylamino-propionamide hydrochloride], with above 57.6 µM.
Then `CN[C@@H](C)C(=O)N[C@H]1CCc2ccccc2N(Cc2c(OC)ccc3cc(C(C)=O)ccc23)C1=O` [Example 45, (S)—N—[(S)-1-(6-Acetyl-2-methoxy-naphthalen-1-ylmethyl)-2-oxo-2,3,4,5-tetrahydro-1H-benzo[b]azepin-3-yl]-2-methylamino-propionamide hydrochloride], with above 54.8 µM; and `C=Cc1ccc2c(CN3C(=O)[C@@H](NC(=O)[C@H](C)NC)CCc4ccccc43)c(OC)ccc2c1` [Example 46, (S)—N—[(S)-1-(2-Methoxy-6-vinyl-naphthalen-1-ylmethyl)-2-oxo-2,3,4,5-tetrahydro-1H-benzo[b]azepin-3-yl]-2-methylamino-propionamide hydrochloride], with above 54.8 µM; and `CN[C@@H](C)C(=O)N[C@H]1CCc2ccccc2N(Cc2cnnc3ccccc23)C1=O` [Example 47aa, (S)—N—((S)-1-Cinnolin-4-ylmethyl-2-oxo-2,3,4,5-tetrahydro-1H-benzo[b]azepin-3-yl)-2-methylamino-propionamide hydrochloride], with above 54.8 µM.
Compound `CN[C@@H](C)C(=O)N[C@H]1CCc2ccccc2N(Cc2c(C)ccc3ccccc23)C1=O` [Example 47b, (S)-2-Methylamino-N—[(S)-1-(2-methyl-naphthalen-1-ylmethyl)-2-oxo-2,3,4,5-tetrahydro-1H-benzo[b]azepin-3-yl]-propionamide hydrochloride] registered an IC50 above 54.8 µM.
Then `CN[C@@H](C)C(=O)N[C@H]1CCc2ccccc2N(Cc2c(C)cc(C)c3ccccc23)C1=O` [Example 47bb, (S)—N—[(S)-1-(2,4-Dimethyl-naphthalen-1-ylmethyl)-2-oxo-2,3,4,5-tetrahydro-1H-benzo[b]azepin-3-yl]-2-methylamino-propionamide hydrochloride], with above 54 µM; and `CN[C@@H](C)C(=O)N[C@H]1CCc2ccccc2N(Cc2c(OC)ccc3ccccc23)C1=O` [Example 47c, (S)—N—[(S)-1-(2-Methoxy-naphthalen-1-ylmethyl)-2-oxo-2,3,4,5-tetrahydro-1H-benzo[b]azepin-3-yl]-2-methylamino-propionamide hydrochloride], with above 54 µM; and `CN[C@@H](C)C(=O)N[C@H]1CCc2ccccc2N(Cc2ccnc3ncccc23)C1=O` [Example 47cc, (S)-2-Methylamino-N—((S)-1-[1,8]naphthyridin-4-ylmethyl-2-oxo-2,3,4,5-tetrahydro-1H-benzo[b]azepin-3-yl)-propionamide hydrochloride], with above 54.8 µM.
Then `CN[C@@H](C)C(=O)N[C@H]1CCc2ccccc2N(Cc2ccnc3ccccc23)C1=O` [Example 47d, (S)-2-Methylamino-N—((S)-2-oxo-1-quinolin-4-ylmethyl-2,3,4,5-tetrahydro-1H-benzo[b]azepin-3-yl)-propionamide hydrochloride], with above 54.8 µM.
`CN[C@@H](C)C(=O)N[C@H]1CCc2ccccc2N(Cc2c(OC(C)C)ccc3ccccc23)C1=O` [Example 47dd, (S)—N—[(S)-1-(2-Isopropoxy-naphthalen-1-ylmethyl)-2-oxo-2,3,4,5-tetrahydro-1H-benzo[b]azepin-3-yl]-2-methylamino-propionamide hydrochloride]: the IC50 is above 54.8 µM.
`CN[C@@H](C)C(=O)N[C@H]1CCc2ccccc2N(Cc2cccc3ncccc23)C1=O` [Example 47e, (S)-2-Methylamino-N—((S)-2-oxo-1-quinolin-5-ylmethyl-2,3,4,5-tetrahydro-1H-benzo[b]azepin-3-yl)-propionamide hydrochloride]: the concentration for half-maximal inhibition (IC50) is above 54.8 µM.
Regarding `CN[C@@H](C)C(=O)N[C@H]1CCc2ccccc2N(Cc2cccc3cc4ccccc4cc23)C1=O` [Example 47ee, (S)—N—((S)-1-Anthracen-1-ylmethyl-2-oxo-2,3,4,5-tetrahydro-1H-benzo[b]azepin-3-yl)-2-methylamino-propionamide hydrochloride], the half-inhibitory concentration (IC50) was above 54.8 µM.
`CN[C@@H](C)C(=O)N[C@H]1CCc2ccccc2N(Cc2ccc(C)c3ccccc23)C1=O` [Example 47f, (S)-2-Methylamino-N—[(S)-1-(4-methyl-naphthalen-1-ylmethyl)-2-oxo-2,3,4,5-tetrahydro-1H-benzo[b]azepin-3-yl]-propionamide hydrochloride] registered an IC50 above 54.8 µM.
For the compound `CN[C@@H](C)C(=O)N[C@H]1CCc2ccccc2N(Cc2cccc3ccc(Br)cc23)C1=O` [Example 47ff, (S)—N—[(S)-1-(7-Bromo-naphthalen-1-ylmethyl)-2-oxo-2,3,4,5-tetrahydro-1H-benzo[b]azepin-3-yl]-2-methylamino-propionamide hydrochloride], the IC50 came out at 47.5 µM.
For the compound `CN[C@@H](C)C(=O)N[C@H]1CCc2ccccc2N(Cc2ccc(Br)c3ccccc23)C1=O` [Example 47g, (S)—N—[(S)-1-(4-Bromo-naphthalen-1-ylmethyl)-2-oxo-2,3,4,5-tetrahydro-1H-benzo[b]azepin-3-yl]-2-methylamino-propionamide hydrochloride], the half-inhibitory concentration (IC50) is above 54.8 µM.
`CN[C@@H](C)C(=O)N[C@H]1CCc2ccccc2N(Cc2cc(Br)cc3ccccc23)C1=O` [Example 47gg, (S)—N—[(S)-1-(3-Bromo-naphthalen-1-ylmethyl)-2-oxo-2,3,4,5-tetrahydro-1H-benzo[b]azepin-3-yl]-2-methylamino-propionamide hydrochloride] registered an IC50 above 54.8 µM.
Next, `CN[C@@H](C)C(=O)N[C@H]1CCc2ccccc2N(Cc2cccc3ccccc23)C1=O` [Example 47h, (S)-2-Methylamino-N—((S)-1-naphthalen-1-ylmethyl-2-oxo-2,3,4,5-tetrahydro-1H-benzo[b]azepin-3-yl)-propionamide hydrochloride]: above 54.2 µM.

By IC50 is commonly meant the point on the concentration scale where inhibition reaches its midpoint.
